{"source": "patent US20240115647A1", "about": "“COMPOSITION COMPRISING FLAVANOL MONOMERS AND E-VINIFERIN” (ACTIV'INSIDE, priority 2020, published 2024)", "system": "tyrosinase", "experiment": "tyrosinase activity, colorimetric reaction with L-DOPA substrate (absorbance 475 nm)", "type": "biochemical", "procedure": "The aim of this test is to model the activity of an enzyme, tyrosinase (the enzyme responsible for melanin formation) using an experimental design and to determine the influence of flavanol monomers and ε-viniferin on enzymatic activity with respect to a specific substrate (L-DOPA). Tyrosinase activity was measured in vitro using a colorimetric reaction. Under the action of tyrosinase, L-DOPA is oxidized and converted into dopaquinone. The formation of dopaquinone can thus be monitored by spectrometry at 475 nm.\nIn a 96-well plate, the following amounts were deposited in each well: 80 μl phosphate buffer (50 mM), 40 μl of sample to be tested or buffer, 40 μl of tyrosinase at 125 U/ml. At the last moment, 40 μl of L-DOPA (2.5 mM) was added to initiate the reaction and then absorbance at 475 nm was monitored for 25 min.\nFor each well, the absorbance values over time (Ax) are normalized relative to the first absorbance measurement (AT0) according to the following formula: Normalized absorbance (An)=Ax−AT0. The normalized absorbances are then corrected (for each time) according to the following formula: Corrected normalized absorbance (Anc)=An−ACLT, where ACLT is the value of the normalized absorbance of the reagents in the presence of the sample (buffer+tyrosinase+sample). […]\nTo this end, tyrosinase activity was monitored and measured in vitro using the colorimetric reaction described above. […]"}
{"compound": "Oc1ccc(/C=C/c2cc(O)cc3c2[C@@H](c2cc(O)cc(O)c2)[C@H](c2ccc(O)cc2)O3)cc1", "note": "[ε-viniferin]", "values": [{"measurement": "effect on tyrosinase activity with respect to the L-DOPA substrate", "setting": "experimental design: flavanol monomers 1-50 μM, ε-viniferin 0.0050-0.05 μM, response at 7 min", "value": "no significant effect"}, {"measurement": "Estimated Coefficient (coded factors) of the model of corrected normalized absorbance", "setting": "linear-quadratic model, central composite design, negative = reduces tyrosinase activity", "value": "−0.0045"}]}
